Test results taken from ChEMBL document CHEMBL1142111, “Induced production of emericellamides A and B from the marine-derived fungus Emericella sp. in competing co-culture” (J Nat Prod, 2007).
Values after ≈ are worked out from the molar mass of the structure shown.

Columns and labels:
[1] = test system: Staphylococcus aureus; experiment: Antimicrobial activity against methicillin-resistant Staphylococcus aureus; type: functional
[2] = test system: HCT-116; experiment: Cytotoxicity against human HCT116 cells; type: cell-based

Structure (SMILES)	MIC [1]	IC50 [2]
CCCCCC[C@H](C)[C@H]1OC(=O)[C@H](C)NC(=O)[C@H](C)NC(=O)[C@H](CC(C)C)NC(=O)[C@H](C(C)C)NC(=O)CNC(=O)[C@@H]1C [EMERICELLAMIDE A]	3.8 µM (≈ 2.32 µg/mL)	23 µM
CCCCCC[C@H](C)C[C@H](C)[C@H]1OC(=O)[C@H](C)NC(=O)[C@H](C)NC(=O)[C@H](CC(C)C)NC(=O)[C@H](C(C)C)NC(=O)CNC(=O)[C@@H]1C [EMERICELLAMIDE B]	6 µM (≈ 3.91 µg/mL)	40 µM
